ChEMBL document CHEMBL1201862, “PubChem BioAssay data set” (2004)
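Exposure lasted 48 hours, with cells grown in 96-well plates and compounds tested at five concentrations. GI50 marks 50% less growth.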 Activity calls are given as the source filed them. Cut-off read from the data, not from the text of the source: active = GI50 up to about 1.1 µM and inactive = higher.

Tests used:
Assay in all cases: NCI anticancer screen, dose series, 48 h
[1] = test system: HT-29
[2] = test system: LOX IMVI
[3] = test system: SNB-19
[4] = test system: MDA-MB-231
[5] = test system: SK-MEL-5
[6] = test system: SF-268
[7] = test system: Malme-3M
[8] = test system: A549
[9] = test system: HOP-62
[10] = test system: SK-OV-3
[11] = test system: MOLT-4
[12] = test system: SW-620
[13] = test system: OVCAR-5
[14] = test system: ACHN
[15] = test system: BT-549
[16] = test system: COLO 205
[17] = test system: TK-10
[18] = test system: NCI-H460
[19] = test system: HCC 2998
[20] = test system: M14
[21] = test system: PC-3
[22] = test system: IGROV-1
[23] = test system: UACC-62
[24] = test system: HCT-15
[25] = test system: SF-295
[26] = test system: NCI-H226
[27] = test system: K562
[28] = test system: MCF7
[29] = test system: HOP-92
[30] = test system: CCRF-CEM
[31] = test system: OVCAR-4
[32] = test system: SR
[33] = test system: RPMI-8226
[34] = test system: SNB-75
[35] = test system: EKVX
[36] = test system: SN12C
[37] = test system: CAKI-1
[38] = test system: HL-60
[39] = test system: NCI-H522
[40] = test system: NCI/ADR-RES
[41] = test system: SK-MEL-28
[42] = test system: MDA-N
[43] = test system: RXF 393
[44] = test system: SK-MEL-2
[45] = test system: U-251
[46] = test system: MDA-MB-435
[47] = test system: OVCAR-3
[48] = test system: A498
[49] = test system: KM12
[50] = test system: UO-31
[51] = test system: UACC-257
[52] = test system: 786-0
[53] = test system: HCT-116
[54] = test system: NCI-H23
[55] = test system: OVCAR-8
[56] = test system: Hs-578T

CSc1cc(Cl)c(C)cc1S(=O)(=O)NC(=O)Nc1ccc(Cl)cc1
GI50 [1]: 35.2 µM (inactive) | GI50 [2]: 10.9 µM (inactive) | GI50 [3]: 30.5 µM (inactive) | GI50 [4]: 29.5 µM (inactive) | GI50 [5]: 22.2 µM (inactive) | GI50 [6]: 35.9 µM (inactive) | GI50 [7]: 31.6 µM (inactive) | GI50 [8]: 33.3 µM (inactive) | GI50 [9]: 24.6 µM (inactive) | GI50 [10]: 38.7 µM (inactive) | GI50 [11]: 16.8 µM (inactive) | GI50 [12]: 33.7 µM (inactive) | GI50 [13]: 45.3 µM (inactive) | GI50 [14]: 27.8 µM (inactive) | GI50 [15]: 32 µM (inactive) | GI50 [16]: 15.5 µM (inactive) | GI50 [17]: 28.5 µM (inactive) | GI50 [18]: 29.1 µM (inactive) | GI50 [19]: 16 µM (inactive) | GI50 [20]: 39.9 µM (inactive) | GI50 [21]: 19.9 µM (inactive) | GI50 [22]: 39.6 µM (inactive) | GI50 [23]: 0.48 µM (active) | GI50 [24]: 20.5 µM | GI50 [25]: 29.6 µM (inactive) | GI50 [26]: 22 µM (inactive) | GI50 [27]: 29.9 µM (inactive) | GI50 [28]: 30.3 µM (inactive) | GI50 [29]: 24.4 µM (inactive) | GI50 [30]: 12.6 µM (inactive) | GI50 [31]: 40.1 µM (inactive) | GI50 [32]: 21.5 µM (inactive) | GI50 [33]: 30.9 µM (inactive) | GI50 [34]: 27.1 µM (inactive) | GI50 [35]: 32.7 µM (inactive) | GI50 [36]: 36.5 µM (inactive) | GI50 [37]: 41.6 µM (inactive) | GI50 [38]: 12.3 µM (inactive) | GI50 [39]: 20.4 µM (inactive) | GI50 [40]: 25.6 µM (inactive) | GI50 [41]: 46.1 µM (inactive) | GI50 [42]: 33.5 µM (inactive) | GI50 [43]: 22.9 µM (inactive) | GI50 [44]: 25.8 µM (inactive) | GI50 [45]: 36.6 µM (inactive) | GI50 [46]: 38.4 µM (inactive) | GI50 [47]: 28 µM (inactive) | GI50 [48]: 38.2 µM (inactive) | GI50 [49]: 24.1 µM (inactive) | GI50 [50]: 17 µM (inactive) | GI50 [51]: 28.5 µM (inactive) | GI50 [52]: 31.2 µM (inactive) | GI50 [53]: 17.5 µM (inactive) | GI50 [54]: 18.4 µM (inactive) | GI50 [55]: 35.6 µM (inactive) | GI50 [56]: 51.8 µM (inactive)
